{"source": "patent US7763287B2", "about": "“Extract of Cercis chinensis having anti-oxidant activity and anti-aging activity, and cosmetical composition containing the extract for anti-oxidation, skin-aging protection and wrinkle improvement” (Hankook Pharm. Co., Inc., priority 2002, dated 2010)", "key": {"HEK-N/F cells [1]": {"system": "HEK-N/F cells", "test": "Prolongation of life span of a cell", "type": "cell-based, human", "conditions": "3 μg/ml during culture", "method": "HEK-N/F cells were obtained from foreskin of a newborn baby after its fibroblasts, another major component of skin, were treated with uridine bromide. Then, the cells were cultured in DMEM medium supplemented with 10 FBS. HEK-N/F cells were diluted consecutively at the ratio of 1:4 during the culture. Before being treated with samples, the cells were grown up to 3 PDL (population doubling level). During the culture, each sample was administered by […]. Medium was replaced every three days by fresh medium supplemented with a culture solution containing the equal concentration of the sample."}, "HEK-N/F cells [2]": {"system": "HEK-N/F cells", "test": "Cell protection from UV irradiation (DNA damage, ethidium homodimer fluorescence)", "type": "cell-based, human", "conditions": "35 mJ/cm^2 UVB, Et2 fluorescence (DNA damage)", "method": "UV irradiation induces DNA damage and DNA-protein connection by increasing active oxygen in cells. When HEK-N/F cells were irradiated by 35 mJ/cm^2 of UVB, DNA chains in nucleus were cut. After uniting the broken chains to ethidium homodimer (Et2), a DNA chain intercalating fluorescent dye, extent of fluorescence was measured to quantify the amount of DNA damage. Particularly, HEK-N/F cells were cultured on serum-free KGM medium (Clonetics), which were inoculated into wells of a 24-well plate by 0.5−4×10^4 cells/2 cm^2. Then, the cells were cultured for 18 hours, after which a sample was treated thereto for 2 hours. […] The cells exposed on UV were further cultured for 1-7 hours, and then, […] ethidium homodimer (Et2, Millipore) was added. 30 minutes later, fluorescence was measured with Millipore microplate fluorometer Cytofluor 2350 (excitation: 485 nm, emission: 645 nm)."}, "[3]": {"test": "Superoxide radical scavenging activity (xanthine/xanthine oxidase, NBT)", "type": "biochemical", "conditions": "Table 6", "method": "Superoxide radical (O^2−) itself has a little reactivity, but is easily changed into H2O2 that generates hydroxyl radical having strong reactivity or is reacted with nitric oxide (NO.) to generate peroxy nitrite (ONOO^−) having strong reactivity, too. Thus, it might be a reason for oxidation of SH-group, nitration of protein tyrosine, lipid peroxidation and DNA damage. […] Basically, measurement of superoxide radical scavenging activity was performed by investigating the activity of superoxide dismutase (SOD), an enzyme scavenging superoxide by dismutation of the same. In the present invention, an activity of a sample to inhibit superoxide production by the enzyme reaction of xanthine/xanthine oxidase and its another activity to inhibit reaction (NBT+20^2−→NBTH2+2O2) generating formazan by reduction of nitro blue tetrazolium (referred as ‘NBT’ hereinafter) were measured. Particularly, wells of a 96-well plate were supplemented with 50 μl of 4 mM xanthine (Sigma), 50 μl of […] NBT (Sigma), 50 μl of 50 mM phosphate buffer (pH 7.8, 1 mM EDTA) and 10 μl of each sample, into which 40 μl of xanthine oxidase was added to induce a reaction. After the reaction was completed, each reaction solution was collected as scheduled, and OD550 was measured with an ELISA reader. […] Superoxide Radical Scavenging Activity (%)=(Acontrol−Asample)/(Acontrol−Ablank)×100 <Mathematical Formula 4> […]"}, "[4]": {"test": "DPPH radical scavenging activity", "type": "biochemical", "method": "In order to extract an effective ingredient having an anti-oxidant activity from Cercis chinensis, an experiment was performed following the procedure represented in a schematic diagram of FIG. 1. Particularly, 1 kg of leaves and stems of Cercis chinensis, dried in shadow, were grinded to powder using a pulverizer, which was extracted by ethanol (EtOH) at room temperature twice at intervals of two weeks. For the extraction, ethanol solutions were prepared by adding ethanol gradually, 10% at a time, from 0% to 100%. The prepared ethanol solutions were used for the extraction. […] But, it looses absorbance when being scavenged. Based on that point, an anti-oxidant activity can be measured using DPPH. […] Then, each solution was distributed into a 96 well plate by 10 μl each, into which 190 μl of DPPH(Sigma, St. Louis, Mo, USA) solution whose ethanol concentration was 2×10^−4 M/ml was added. The plate was just left at room temperature for 30 minutes. Finally, OD517 was measured at 517 nm. For a control, DMSO was added instead of the sample, and changes of optical density were investigated. […] DDPH Radical Scavenging Activity (%)=(Acontrol−Asample)/(Acontrol)×100 <Mathematica Formula 1>\nAcontrol: Optical density of control group (sample was not added),\nAsample: Optical density of experimental group (sample was added).\nIn order to identify a fraction having an anti oxidant activity among hexane Fr, EtOAc Fr and BuOH Fr obtained above, a DPPH radical scavenging activity was measured using each extract of each fraction following the method used above. At this time, vitamin E, known to have high DPPH radical scavenging activity, was used as a comparing group.\nAt this time, BHA (tert-butyl-4 hydroxyanisole) and α-tocopherol, synthetic anti-oxidant agents, were used as positive controls."}, "rat brain homogenates": {"system": "rat brain homogenates", "test": "Lipid peroxidation inhibitory activity (Fe2+/ascorbic acid, TBA method)", "conditions": "Table 4"}, "[5]": {"test": "Hydroxyl radical scavenging activity (deoxyribose/TBA, method of Halliwell)", "type": "biochemical", "conditions": "10 μg of sample, total volume 1 ml", "method": "Hydroxyl radical (HO.) is generated by the reaction of a metal ion or a superoxide radical. Owing to its strong reactivity, hydroxyl radical causes oxidative damages to DNA, protein and lipid in vivo. Nitric oxide (NO.) is reacted with a superoxide radical to generate a peroxy nitrite (ONOO—), also having strong reactivity. […] Particularly, each compound was mixed with 10 μg of a sample dissolved in DMSO, phosphate buffer (20 mM, pH 7.4) 5.6 mM deoxyribose, 0.1 mM FeCl3, 1 mM H2O2 and 0.1 mM ascorbic acid, making total volume 1 ml, which was then reacted at 37° C. for 60 minutes. 250 μl of 20% TCA and 250 μl of 1% TBA solution (dissolved in 50 mM NaOH) were added to the reaction solution, followed by thermal reaction at 95° C. for 5 minutes. After completing the reaction, OD532 was measured. Hydroxyl radical scavenging activity was calculated by the below\n<Mathematical Formula 3>. BHA and α-tocopherol were used for a positive control. Hydroxyl Radical Scavenging Activity (%)=(Acontrol−Asample)/(Acontrol−Ablank)×100 <Mathematical Formula 3>\nAcontrol: Optical density of control group well (sample was not added),\nAsample: Optical density of experimental group well (sample was added),\nAblank: Optical density of well not added with sample, TCA and TBA"}, "[6]": {"test": "Nitric oxide scavenging activity", "type": "biochemical"}}, "data": [{"smiles": "O=c1c(O)c(-c2cc(O)c(O)c(O)c2)oc2cc(O)cc(O)c12", "note": "[Chemical Formula 9, myricetin]", "values": [{"measurement": "average life span of a cell", "setting": "HEK-N/F cells [1]", "value": 56, "unit": "days"}, {"measurement": "life span, times as long as that of a control", "setting": "HEK-N/F cells [1]", "value": 1.6, "unit": "times"}, {"measurement": "fluorescence lower than that of a control", "setting": "HEK-N/F cells [2]", "value": 54.7, "unit": "%"}, {"measurement": "Superoxide radical scavenging activity IC50", "setting": "[3]", "value": "12.1 ± 1.1", "unit": "mg/L"}, {"measurement": "DPPH radical scavenging activity (in words)", "setting": "[4]", "value": "strong radical scavenging activity"}, {"measurement": "DPPH radical scavenging activity IC50", "setting": "[4]; Table 3", "value": "7.3 ± 0.3", "unit": "mg/L"}, {"measurement": "Lipid Peroxidation Inhibitory Activity IC50", "setting": "rat brain homogenates", "value": "0.95 ± 0.06", "unit": "mg/L"}, {"measurement": "Hydroxyl radical scavenging activity (%)", "setting": "[5]", "value": 8.7, "unit": "%"}, {"measurement": "Nitric oxide scavenging activity (in words)", "setting": "[6]", "value": "comparatively high nitric oxide scavenging activity"}]}]}
